Source: ChEMBL document CHEMBL5634166, “Structural modification of tanshinone IIA and their α-glucosidase inhibitory activity” (Bioorg Med Chem Lett, 2024)
Active and inactive are the calls of the source. No cut-off for these calls is given here.

Assays:
[1] = target: T1, Alpha-glucosidase (Saccharomyces cerevisiae S288c) (UniProt P53341+P38158+P07265); assay: Inhibition of yeast alpha glucosidase at 50 uM relative to control; type: protein assay
Alpha-glucosidase [2] = target: T2, Alpha-glucosidase (Saccharomyces cerevisiae S288c, UniProt P53341+P38158+P07265); assay: Inhibition of yeast alpha-glucosidase; type: protein assay
[3] = target: T1, Alpha-glucosidase (Saccharomyces cerevisiae S288c); assay: Potency index, ratio of acarbose IC50 to test compound IC50 for inhibition of yeast alpha glucosidase; type: protein assay
Alpha-glucosidase [4] = target: T2, Alpha-glucosidase; assay: Binding affinity to yeast alpha glucosidase assessed as inhibition constant; type: protein assay
[5] = target: T1, Alpha-glucosidase (Saccharomyces cerevisiae S288c); assay: Competitive inhibition of yeast alpha-glucosidase assessed as […] with constant Vmax by Lineweaver-Burk plot analysis; type: protein assay
Alpha-glucosidase [6] = target: T2, Alpha-glucosidase; assay: Inhibition of Saccharomyces cerevisiae alpha-glucosidase using p-nitrophenyl-alpha-D-glucopyranoside as substrate preincubated for 5 mins followed by substrate addition and measured after 30 mins by spectrophotometric analysis; type: protein assay
Alpha-glucosidase [7] = target: T2, Alpha-glucosidase; assay: Inhibition of alpha-glucosidase (unknown origin); type: protein assay, Homo sapiens

Row | Structure (SMILES) | inhibition [1] | IC50 (Alpha-glucosidase [2]) | other results
1 | Cc1coc2c3ccc4c(c3c3oc(-c5ccccc5C(F)(F)F)nc3c12)CCCC4(C)C | < 80% |  | 
2 | COc1cc(-c2nc3c(o2)c2c4c(ccc2c2occ(C)c32)C(C)(C)CCC4)ccc1O | < 80% |  | 
3 | Cc1coc2c3ccc4c(c3c3oc(Cc5ccccc5)nc3c12)CCCC4(C)C | > 80% | 4.14 µM | 
4 | Cc1coc2c3ccc4c(c3c3oc(-c5ccccc5)nc3c12)CCCC4(C)C | > 80% | 3.51 µM | 
5 | Cc1coc2c1C(=O)C(=O)c1c-2ccc2c1CCCC2(C)C [TANSHINONE IIA] | > 80% | 11.39 µM | 
6 | Cc1coc2c3ccc4c(c3c3oc(-c5ccc(Cl)c(Cl)c5)nc3c12)CCCC4(C)C | > 80% | 6.67 µM | 
7 | Cc1coc2c3ccc4c(c3c3oc(-c5ccc(Cl)cc5)nc3c12)CCCC4(C)C | > 80% | 3.45 µM | Ratio IC50 [3]: 30
8 | Cc1coc2c3ccc4c(c3c3oc(-c5ccc(Br)cc5)nc3c12)CCCC4(C)C | < 80% |  | 
9 | Cc1coc2c3ccc4c(c3c3oc(Cc5ccc(O)cc5)nc3c12)CCCC4(C)C | > 80% | 3.21 µM | 
10 | Cc1coc2c3ccc4c(c3c3oc(Cc5ccc(O)c(O)c5)nc3c12)CCCC4(C)C | > 80% | 0.73 µM | Ki (Alpha-glucosidase [4]): 12.1 µM; inhibition [5]: Active
11 | Cc1coc2c3ccc4c(c3c3oc(-c5ccccc5F)nc3c12)CCCC4(C)C | < 80% |  | 
12 | C=C(C)[C@@H]1CC[C@]2(C(=O)NCC(=O)O)CC[C@]3(C)[C@H](CC[C@@H]4[C@@]5(C)Cc6c([nH]c7ccccc67)C(C)(C)[C@@H]5CC[C@]43C)[C@@H]12 |  |  | IC50 (Alpha-glucosidase [6]): 0.04 µM
13 | Cc1coc2c3ccc4c(c3c3oc(CCc5ccccc5)nc3c12)CCCC4(C)C | > 80% | 9.46 µM | 
14 | Cc1coc2c3ccc4c(c3c3oc(CCCc5ccccc5)nc3c12)CCCC4(C)C | < 80% |  | 
15 | Oc1ccc(/C=N/c2nnc(-c3ccc(O)cc3)o2)cc1 |  |  | IC50 (Alpha-glucosidase [7]): 0.3 µM
16 | COc1ccc(-c2nc3c(o2)c2c4c(ccc2c2occ(C)c32)C(C)(C)CCC4)c(OC)c1 | < 80% |  | 
17 | Cc1coc2c3ccc4c(c3c3oc(-c5ccc(C(F)(F)F)cc5)nc3c12)CCCC4(C)C | > 80% | 2.33 µM | 
